Laboratory results as given in patent publication US20230085307A1, “PYRIDAZINONE COMPOUND AND HERBICIDE” (NISSAN CHEMICAL CORPORATION, priority 2019, published 2023).

What was measured:
green foxtail [1] = assay: Test Example 5: herbicidal effect by foliage application, plastic box (Table 20, symbol G); format: in vivo, green foxtail (Setaria viridis); details: foliage application, three weeks after application
Outline: (§1)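 Plants were sown into sterilized diluvial soil under about 1.5 cm cover and kept in a greenhouse at 25° C. to 30° C. Fourteen days on, foliage received an even spray of the diluted emulsion. Herbicidal or crop effect was judged three weeks afterwards.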

Chinese sprangletop = assay: Test Example 3: herbicidal effect by foliage application, Wagner pot (Table 18, symbol D); format: in vivo, chinese sprangletop (Leptochloa chinensis)
Outline: (§2)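 Plants were sown in alluvial soil held under 0.1–0.5 cm standing water and grown 14 days in a greenhouse at 25–30 °C. An emulsifiable formulation, water-diluted to the set dose, was then sprayed onto the foliage, and effects were scored three weeks later using previously defined criteria.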

lambsquarters [2] = assay: Test Example 5: herbicidal effect by foliage application, plastic box (Table 20, symbol O); format: in vivo, lambsquarters (Chenopodium album); details: foliage application, three weeks after application
Outline: as §1

barnyard grass [3] = assay: Test Example 5: herbicidal effect by foliage application, plastic box (Table 20, symbol H); format: in vivo, barnyard grass (Echinochloa crus-galli); details: foliage application, three weeks after application
Outline: as §1

redroot pigweed [4] = assay: Test Example 4: herbicidal effect by soil treatment (Table 19, symbol N); format: in vivo, redroot pigweed (Amaranthus retroflexus)
Outline: (§3)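 Pre-emergence style soil spray: seeds under ~1.5 cm sterilized diluvial soil received a uniform coat of emulsion diluted to the predetermined herbicide amount. Greenhouse 25–30° C; readout at week three on previously defined criteria.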

redroot pigweed [5] = assay: Test Example 5: herbicidal effect by foliage application, plastic box (Table 20, symbol N); format: in vivo, redroot pigweed (Amaranthus retroflexus); details: foliage application, three weeks after application
Outline: as §1

chickweed [6] = assay: Test Example 4: herbicidal effect by soil treatment (Table 19, symbol P); format: in vivo, common chickweed (Stellaria media)
Outline: as §3

wild oat [7] = assay: Test Example 5: herbicidal effect by foliage application, plastic box (Table 20, symbol I); format: in vivo, wild oat (Avena fatua); details: foliage application, three weeks after application
Outline: as §1

green foxtail [8] = assay: Test Example 4: herbicidal effect by soil treatment (Table 19, symbol G); format: in vivo, green foxtail (Setaria viridis)
Outline: as §3

rice flat sedge = assay: Test Example 3: herbicidal effect by foliage application, Wagner pot (Table 18, symbol E); format: in vivo, rice flat sedge (Cyperus iria)
Outline: as §2

windgrass [9] = assay: Test Example 5: herbicidal effect by foliage application, plastic box (Table 20, symbol L); format: in vivo, windgrass (Apera spica-venti); details: foliage application, three weeks after application
Outline: as §1

chickweed [10] = assay: Test Example 5: herbicidal effect by foliage application, plastic box (Table 20, symbol P); format: in vivo, common chickweed (Stellaria media); details: foliage application, three weeks after application
Outline: as §1

velvetleaf [11] = assay: Test Example 4: herbicidal effect by soil treatment (Table 19, symbol M); format: in vivo, velvetleaf (Abutilon theophrasti)
Outline: as §3

barnyard grass [12] = assay: Test Example 3: herbicidal effect by foliage application, Wagner pot (Table 18, symbol H); format: in vivo, barnyard grass (Echinochloa crus-galli)
Outline: as §2

southern crabgrass [13] = assay: Test Example 5: herbicidal effect by foliage application, plastic box (Table 20, symbol F); format: in vivo, southern crabgrass (Digitaria ciliaris); details: foliage application, three weeks after application
Outline: as §1

blackgrass [14] = assay: Test Example 4: herbicidal effect by soil treatment (Table 19, symbol J); format: in vivo, blackgrass (Alopecurus myosuroides)
Outline: as §3

oval-leafed pondweed = assay: Test Example 1: herbicidal activity, application before weed generation under submerged conditions (Table 16, symbol C); format: in vivo, oval-leafed pondweed (Monochoria vaginalis)
Outline: (§4)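 Alluvial soil was flooded to 4 cm depth, weed seeds were sown mixed and 2.5-leaf rice seedlings were transplanted. On sowing day, the compound's emulsion, diluted in water to a set dose, was applied to the water surface. Plants grew at 25–30 °C and were scored 0–5 after three weeks.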

persian speedwell [15] = assay: Test Example 5: herbicidal effect by foliage application, plastic box (Table 20, symbol R); format: in vivo, Persian speedwell (Veronica persica); details: foliage application, three weeks after application
Outline: as §1

barnyard grass [16] = assay: Test Example 4: herbicidal effect by soil treatment (Table 19, symbol H); format: in vivo, barnyard grass (Echinochloa crus-galli)
Outline: as §3

blackgrass [17] = assay: Test Example 5: herbicidal effect by foliage application, plastic box (Table 20, symbol J); format: in vivo, blackgrass (Alopecurus myosuroides); details: foliage application, three weeks after application
Outline: as §1

persian speedwell [18] = assay: Test Example 4: herbicidal effect by soil treatment (Table 19, symbol R); format: in vivo, Persian speedwell (Veronica persica)
Outline: as §3

windgrass [19] = assay: Test Example 4: herbicidal effect by soil treatment (Table 19, symbol L); format: in vivo, windgrass (Apera spica-venti)
Outline: as §3

Italian ryegrass [20] = assay: Test Example 5: herbicidal effect by foliage application, plastic box (Table 20, symbol K); format: in vivo, Italian ryegrass (Lolium multiflorum); details: foliage application, three weeks after application
Outline: as §1

Japanese bulrush = assay: Test Example 1: herbicidal activity, application before weed generation under submerged conditions (Table 16, symbol B); format: in vivo, Japanese bulrush (Schoenoplectus juncoides)
Outline: as §4

southern crabgrass [21] = assay: Test Example 4: herbicidal effect by soil treatment (Table 19, symbol F); format: in vivo, southern crabgrass (Digitaria ciliaris)
Outline: as §3

Italian ryegrass [22] = assay: Test Example 4: herbicidal effect by soil treatment (Table 19, symbol K); format: in vivo, Italian ryegrass (Lolium multiflorum)
Outline: as §3

late watergrass = assay: Test Example 1: herbicidal activity, application before weed generation under submerged conditions (Table 16, symbol A); format: in vivo, late watergrass (Echinochloa oryzicola)
Outline: as §4

velvetleaf [23] = assay: Test Example 5: herbicidal effect by foliage application, plastic box (Table 20, symbol M); format: in vivo, velvetleaf (Abutilon theophrasti); details: foliage application, three weeks after application
Outline: as §1

wild oat [24] = assay: Test Example 4: herbicidal effect by soil treatment (Table 19, symbol I); format: in vivo, wild oat (Avena fatua)
Outline: as §3

lambsquarters [25] = assay: Test Example 4: herbicidal effect by soil treatment (Table 19, symbol O); format: in vivo, lambsquarters (Chenopodium album)
Outline: as §3

[26] = amount of applied herbicide 320 g/ha

CCCC(=O)Oc1c(C)nn(C)c(=O)c1-c1c(-c2ccc(F)c(F)c2)sc2ccccc12 [1-047]
herbicidal effect grade, G: green foxtail (green foxtail [1]; 320 g/ha): 0 (Herbicidal rate of 5% or less (almost no effect))
herbicidal effect on D (Chinese sprangletop), rating 0-5 (Chinese sprangletop; 320 g/ha): 0 (Herbicidal rate of 5% or less (almost no effect))
herbicidal effect grade, O: lambsquarters (lambsquarters [2]; 320 g/ha): 3 (Herbicidal rate of 40% or more and less than 70%)
herbicidal effect grade, H: barnyard grass (barnyard grass [3]; 320 g/ha): 0 (Herbicidal rate of 5% or less (almost no effect))
herbicidal effect rating, N: redroot pigweed (redroot pigweed [4]; [26]): 0 (Herbicidal rate of 5% or less (almost no effect))
herbicidal effect grade, N: redroot pigweed (redroot pigweed [5]; 320 g/ha): 3 (Herbicidal rate of 40% or more and less than 70%)
herbicidal effect rating, P: chickweed (chickweed [6]; [26]): 5 (Herbicidal rate of 90% or more (almost completely withered))
herbicidal effect grade, I: wild oat (wild oat [7]; 320 g/ha): 0 (Herbicidal rate of 5% or less (almost no effect))
herbicidal effect rating, G: green foxtail (green foxtail [8]; [26]): 2 (Herbicidal rate of 20% or more and less than 40%)
herbicidal effect on E (rice flat sedge), rating 0-5 (rice flat sedge; 320 g/ha): 5 (Herbicidal rate of 90% or more (almost completely withered))
herbicidal effect grade, L: windgrass (windgrass [9]; 320 g/ha): 0 (Herbicidal rate of 5% or less (almost no effect))
herbicidal effect grade, P: chickweed (chickweed [10]; 320 g/ha): 5 (Herbicidal rate of 90% or more (almost completely withered))
herbicidal effect rating, M: velvetleaf (velvetleaf [11]; [26]): 0 (Herbicidal rate of 5% or less (almost no effect))
herbicidal effect on H (barnyard grass), rating 0-5 (barnyard grass [12]; 320 g/ha): 2 (Herbicidal rate of 20% or more and less than 40%)
herbicidal effect grade, F: southern crabgrass (southern crabgrass [13]; 320 g/ha): 0 (Herbicidal rate of 5% or less (almost no effect))
herbicidal effect rating, J: blackgrass (blackgrass [14]; [26]): 0 (Herbicidal rate of 5% or less (almost no effect))
Herbicidal effect on C: oval-leafed pondweed (grade 0-5) (oval-leafed pondweed; 320 g/ha applied herbicide): 0 (Herbicidal rate of 5% or less (almost no effect))
herbicidal effect grade, R: persian speedwell (persian speedwell [15]; 320 g/ha): 3 (Herbicidal rate of 40% or more and less than 70%)
herbicidal effect rating, H: barnyard grass (barnyard grass [16]; [26]): 3 (Herbicidal rate of 40% or more and less than 70%)
herbicidal effect grade, J: blackgrass (blackgrass [17]; 320 g/ha): 0 (Herbicidal rate of 5% or less (almost no effect))
herbicidal effect rating, R: persian speedwell (persian speedwell [18]; [26]): 5 (Herbicidal rate of 90% or more (almost completely withered))
herbicidal effect rating, L: windgrass (windgrass [19]; [26]): 0 (Herbicidal rate of 5% or less (almost no effect))
herbicidal effect grade, K: Italian ryegrass (Italian ryegrass [20]; 320 g/ha): 0 (Herbicidal rate of 5% or less (almost no effect))
Herbicidal effect on B: Japanese bulrush (grade 0-5) (Japanese bulrush; 320 g/ha applied herbicide): 0 (Herbicidal rate of 5% or less (almost no effect))
herbicidal effect rating, F: southern crabgrass (southern crabgrass [21]; [26]): 0 (Herbicidal rate of 5% or less (almost no effect))
herbicidal effect rating, K: Italian ryegrass (Italian ryegrass [22]; [26]): 0 (Herbicidal rate of 5% or less (almost no effect))
Herbicidal effect on A: late watergrass (grade 0-5) (late watergrass; 320 g/ha applied herbicide): 3 (Herbicidal rate of 40% or more and less than 70%)
herbicidal effect grade, M: velvetleaf (velvetleaf [23]; 320 g/ha): 5 (Herbicidal rate of 90% or more (almost completely withered))
herbicidal effect rating, I: wild oat (wild oat [24]; [26]): 0 (Herbicidal rate of 5% or less (almost no effect))
herbicidal effect rating, O: lambsquarters (lambsquarters [25]; [26]): 3 (Herbicidal rate of 40% or more and less than 70%)

C=Cc1ccc(-c2sc3ccccc3c2-c2c(OC(=O)CCC)c(C)nn(C)c2=O)cc1 [1-128]
G: green foxtail, herbicidal effect (green foxtail [1]; AAH 246 g/ha): 0 (Herbicidal rate of 5% or less (almost no effect))
herbicidal effect on D (Chinese sprangletop), rating 0-5 (Chinese sprangletop; 246 g/ha): 5 (Herbicidal rate of 90% or more (almost completely withered))
O: lambsquarters, herbicidal effect (lambsquarters [2]; AAH 246 g/ha): 4 (Herbicidal rate of 70% or more and less than 90%)
H: barnyard grass, herbicidal effect (barnyard grass [3]; AAH 246 g/ha): 1 (Herbicidal rate of 5% or more and less than 20%)
N: redroot pigweed, herbicidal effect rating (redroot pigweed [4]; AAH 246 g/ha): 4 (Herbicidal rate of 70% or more and less than 90%)
N: redroot pigweed, herbicidal effect (redroot pigweed [5]; AAH 246 g/ha): 5 (Herbicidal rate of 90% or more (almost completely withered))
P: chickweed, herbicidal effect rating (chickweed [6]; AAH 246 g/ha): 3 (Herbicidal rate of 40% or more and less than 70%)
I: wild oat, herbicidal effect (wild oat [7]; AAH 246 g/ha): 1 (Herbicidal rate of 5% or more and less than 20%)
G: green foxtail, herbicidal effect rating (green foxtail [8]; AAH 246 g/ha): 0 (Herbicidal rate of 5% or less (almost no effect))
herbicidal effect on E (rice flat sedge), rating 0-5 (rice flat sedge; 246 g/ha): 3 (Herbicidal rate of 40% or more and less than 70%)
L: windgrass, herbicidal effect (windgrass [9]; AAH 246 g/ha): 4 (Herbicidal rate of 70% or more and less than 90%)
P: chickweed, herbicidal effect (chickweed [10]; AAH 246 g/ha): 5 (Herbicidal rate of 90% or more (almost completely withered))
M: velvetleaf, herbicidal effect rating (velvetleaf [11]; AAH 246 g/ha): 0 (Herbicidal rate of 5% or less (almost no effect))
herbicidal effect on H (barnyard grass), rating 0-5 (barnyard grass [12]; 246 g/ha): 4 (Herbicidal rate of 70% or more and less than 90%)
F: southern crabgrass, herbicidal effect (southern crabgrass [13]; AAH 246 g/ha): 0 (Herbicidal rate of 5% or less (almost no effect))
J: blackgrass, herbicidal effect rating (blackgrass [14]; AAH 246 g/ha): 0 (Herbicidal rate of 5% or less (almost no effect))
Herbicidal effect on C: oval-leafed pondweed (grade 0-5) (oval-leafed pondweed; 246 g/ha applied herbicide): 5 (Herbicidal rate of 90% or more (almost completely withered))
R: persian speedwell, herbicidal effect (persian speedwell [15]; AAH 246 g/ha): 5 (Herbicidal rate of 90% or more (almost completely withered))
H: barnyard grass, herbicidal effect rating (barnyard grass [16]; AAH 246 g/ha): 0 (Herbicidal rate of 5% or less (almost no effect))
J: blackgrass, herbicidal effect (blackgrass [17]; AAH 246 g/ha): 3 (Herbicidal rate of 40% or more and less than 70%)
R: persian speedwell, herbicidal effect rating (persian speedwell [18]; AAH 246 g/ha): 3 (Herbicidal rate of 40% or more and less than 70%)
L: windgrass, herbicidal effect rating (windgrass [19]; AAH 246 g/ha): 0 (Herbicidal rate of 5% or less (almost no effect))
K: Italian ryegrass, herbicidal effect (Italian ryegrass [20]; AAH 246 g/ha): 4 (Herbicidal rate of 70% or more and less than 90%)
Herbicidal effect on B: Japanese bulrush (grade 0-5) (Japanese bulrush; 246 g/ha applied herbicide): 5 (Herbicidal rate of 90% or more (almost completely withered))
F: southern crabgrass, herbicidal effect rating (southern crabgrass [21]; AAH 246 g/ha): 0 (Herbicidal rate of 5% or less (almost no effect))
K: Italian ryegrass, herbicidal effect rating (Italian ryegrass [22]; AAH 246 g/ha): 2 (Herbicidal rate of 20% or more and less than 40%)
Herbicidal effect on A: late watergrass (grade 0-5) (late watergrass; 246 g/ha applied herbicide): 0 (Herbicidal rate of 5% or less (almost no effect))
M: velvetleaf, herbicidal effect (velvetleaf [23]; AAH 246 g/ha): 4 (Herbicidal rate of 70% or more and less than 90%)
I: wild oat, herbicidal effect rating (wild oat [24]; AAH 246 g/ha): 0 (Herbicidal rate of 5% or less (almost no effect))
O: lambsquarters, herbicidal effect rating (lambsquarters [25]; AAH 246 g/ha): 0 (Herbicidal rate of 5% or less (almost no effect))
